Laboratory results from article PMC11621054, “Biological evaluation of semi-synthetic isoindolinone isomers produced by Stachybotrys chartarum” (Frontiers in Fungal Biology, 2024).

Key:
human α-thrombin = tested on: human α-thrombin; parameters: method as in Steinert et al., 2022; details: 500 nM; ref Steinert et al., 2022; cited from earlier work
human Factor Xa = target: T1, human Factor Xa (Homo sapiens, UniProt P00742); parameters: method as in Steinert et al., 2022; details: 500 nM; ref Steinert et al., 2022; cited from earlier work
T1 construct: human Factor Xa, HFXA, > 95% purity; Molecular Innovations; purchased Molecular Innovations HFXA

[1] = Hepatic phase II sulfation, horse cytosol; type: in vitro ADME; details: 50 µM, 4 h
Procedure: (§1) Liver microsomes and cytosol were obtained for two organisms, horse and human. Fresh horse liver was purchased locally cut to pieces of ca. 50 g each and frozen in liquid nitrogen. Until further usage, the liver was stored at -80 °C. The preparation of microsomes and cytosol was carried out according to Balk et al. ([Balk et al., 1984]), and the protein content was determined by Bradford assay with bovine serum albumin as a reference ([Bradford, 1976]). Human liver microsomes and cytosol (150 Donors Ultrapool™) were provided by Corning, Inc. (Corning, New York, NY, USA). Besides assay-specific positive controls, all assays included stability controls, moreover, matrix influences were considered. For oxidation, additional non-oxidation controls were included. Each experiment was performed in duplicate. All stated concentrations are final concentration values. The test compounds (acetoxystachybotrylactam acetate-tryptophan 2a, 2b and acetoxystachybotrylactam acetate-tryptamine 3a, 3b ) were extended by the most biologically active derivative previously characterized by our group (acetoxystachybotrylactam acetate-agmatine 4 ) ([Steinert et al., 2022]).
(§2) For phase II metabolism, potential sulfation and glucuronidation were investigated. For sulfation, the reaction mixture was pipetted as follows: first, ultrapure water was added and mixed with a 1 mM DTT solution (contains DTT, 100 mM phosphate buffer, 100 µM ascorbic acid, pH 7.4). Then, PAPS (100 µM) and the substance of interest (50 µM) were added, which was concluded by the addition of horse/human cytosol (10 mg protein/mL). For glucuronidation, first, ultrapure H2O, phosphate buffer (50 mM) and MgCl2 (5 mM) were added to the reaction vessel, followed by addition of the investigated substance (50 µM), UDPGA (5 µM), and horse/human microsomes (1 mg protein/mL), respectively. For both assays, the final volume was 100 µL which was subsequently incubated for 4 h at 37 °C in darkness. […] After centrifugation (4 °C, 10 min, 15,000 rpm), 150 µL of supernatant was diluted with 850 µL H2O, which was subsequently analyzed by HPLC-qToF-HRMS. […]

[2] = Hepatic phase I metabolism (oxidation), horse microsomes; type: in vitro ADME; details: 10 µM, 90 min
Procedure: as §1
(§3) The phase I metabolism was investigated utilizing a NADPH- regenerating system. […] After centrifugation (4 °C, 10 min, 15,000 rpm), 150 µL of supernatant was diluted with 850 µL H2O, which was subsequently analyzed by HPLC-qToF-HRMS. […]

plasma coagulation [3] = tested on: plasma coagulation; parameters: method as in Steinert et al., 2022; details: ref Steinert et al., 2022; cited from earlier work
[4] = Hepatic phase II sulfation, human cytosol; type: in vitro ADME; details: 50 µM, 4 h
Procedure: as §1, §2

[5] = Hepatic phase I metabolism (oxidation), human microsomes; type: in vitro ADME; details: 10 µM, 90 min
Procedure: as §1, §3

plasma coagulation [6] = tested on: plasma coagulation; parameters: method as in Steinert et al., 2022; details: ref Steinert et al., 2022; cited from earlier work; remark: listed apart in the source
[7] = tested on: lung adenocarcinoma cells (A549, CCL-185); parameters: method as in Steinert et al., 2022; details: ref Steinert et al., 2022; cited from earlier work
[8] = Hepatic phase II glucuronidation, human microsomes; type: in vitro ADME; details: human microsomes, 50 µM, 4 h
Procedure: as §1
For phase II metabolism, potential sulfation and glucuronidation were investigated. For sulfation, the reaction mixture was pipetted as follows: first, ultrapure water was added and mixed with a 1 mM DTT solution (contains DTT, 100 mM phosphate buffer, 100 µM ascorbic acid, pH 7.4). Then, PAPS (100 µM) and the substance of interest (50 µM) were added, which was concluded by the addition of horse/human cytosol (10 mg protein/mL). For glucuronidation, first, ultrapure H2O, phosphate buffer (50 mM) and MgCl2 (5 mM) were added to the reaction vessel, followed by addition of the investigated substance (50 µM), UDPGA (5 µM), and horse/human microsomes (1 mg protein/mL), respectively. For both assays, the final volume was 100 µL which was subsequently incubated for 4 h at 37 °C in darkness. Quenching and protein precipitation was achieved by adding 200 µL of cold MeCN (-20 °C). After centrifugation (4 °C, 10 min, 15,000 rpm), 150 µL of supernatant was diluted with 850 µL H2O, which was subsequently analyzed by HPLC-qToF-HRMS. For both experiments, 50 µM 7-hydroxycumarin served as positive control.
Chromatographic separation and mass spectrometric detection were identical to the parameters already described for the fragmentation experiments for phase I and phase II glucuronidation metabolism. For sulfation, the HPLC-qToF-HRMS was operated in negative ionization mode at -4.5 kV and otherwise identical source parameters as previously described. […]

[9] = tested on: Human liver carcinoma cells (HepG2, HB-8065); parameters: method as in Steinert et al., 2022; details: HepG2; ref Steinert et al., 2022; cited from earlier work

T1 sequence (P00742 235-488 limits assumed): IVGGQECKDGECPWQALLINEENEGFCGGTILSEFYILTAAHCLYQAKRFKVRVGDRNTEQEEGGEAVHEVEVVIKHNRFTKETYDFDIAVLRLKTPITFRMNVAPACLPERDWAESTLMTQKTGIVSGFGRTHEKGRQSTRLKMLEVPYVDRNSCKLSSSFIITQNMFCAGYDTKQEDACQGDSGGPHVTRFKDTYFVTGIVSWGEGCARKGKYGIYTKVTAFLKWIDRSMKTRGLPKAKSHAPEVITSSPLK
T1 sequence (P00742 41-179 partner limits assumed): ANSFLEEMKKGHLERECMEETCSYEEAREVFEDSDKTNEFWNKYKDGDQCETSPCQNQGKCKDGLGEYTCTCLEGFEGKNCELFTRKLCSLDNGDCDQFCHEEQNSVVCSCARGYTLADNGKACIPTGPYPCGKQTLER

For [H]/N=C(/N)c1ccc(NCc2nc3cc(C(=O)N(CCC(=O)O)c4ccccn4)ccc3n2C)cc1 [Dabigatran, dabigatran], the “inhibition of thrombin (positive control)” value (human α-thrombin) is given as 98.3 ± 0.1%.

In the case of O=C(NC[C@H]1CN(c2ccc(N3CCOCC3=O)cc2)C(=O)O1)c1ccc(Cl)s1 [rivaroxaban], the “inhibition of FXa (positive control)” value (human Factor Xa) is given as 99.8 ± 0.3%.

In the case of “acetoxystachybotrylactam acetate-agmatine [Compound 4]”, the “metabolism under sulfation conditions, in words” value [1] is given as “did undergo metabolism”, the “phase I conversion, in words” value [2] is given as “fastest among the reaction products to be metabolized” and the “plasma coagulation, activated partial thromboplastin time” value (plasma coagulation [3]) is given as “prolonged plasma coagulation”. The “metabolism under sulfation conditions, in words” value [4] was “did undergo metabolism”, the “phase I conversion, in words” value [5] was “fastest among the reaction products to be metabolized” and the “plasma coagulation, prothrombin time” value (plasma coagulation [6]) was “prolonged plasma coagulation”. For the same compound, the “cytotoxicity, in words” value [7] was “no cytotoxicity”, the “glucuronidation: conversion and formation of glucuronides, in words” value [8] was “best conversion” and the “cytotoxicity, in words” value [9] was “no cytotoxicity”.
